Molecules are shown by their SMILES.

From patent US8007836B2, “Cleome spinosa extract used in pharmaceutical preparations and cosmetic compositions” (Pierre Fabre Dermo-Cosmetique, priority 2007, dated 2011) come the findings set out here.

For this assay, the system named is human hair follicles. The assay is described as follows: Growth of cultivated entire human hair follicles from scalp ex vivo, 14 days of culture. It is filed as cell-based. The note with it: vs control non-treated follicles, minoxidil concentration not given. As for the experimental part:
Study of the effect of a Cleome spinosa extract on the growth of cultivated human hair follicles.
Evaluation of minoxidil, a reference molecule, was conducted in parallel.
Hair follicles originate from the human scalp from plastic surgery departments of hospitals or clinics (two donors).
The skin is shaved and washed in 6 baths of antibiotics. The follicles in the anagen phase are recognizable because they are very vascularized, and then isolated from the skin under a binocular magnifier and cleared of fat.
They are then incubated at 37° C. in 24-well culture dishes in an adequate culture medium containing the products to be tested.
The growth of the stem of the hair follicle is measured with plotting paper under a binocular magnifier on days 0, 4, 5, 7, 9, 12 or 14.
The determination of the growth and activity percentages of the hydroalcoholic extract of Cleome spinosa was carried out after 4 or 5, 7 or 8, 12 and 14 days of treatment of the hair follicles as compared with control non-treated follicles.
Notation: Tx is the time x after treatment • T0 is time 0 of the beginning of the treatment
The growth percentage is equal to (Tx measurement−T0 measurement)/T0 measurement×100
The activity of the treatment is calculated in the following way: [(Tx treated measurement−T0 treated measurement)−(Tx control measurement−T0 control measurement)]/(Tx control measurement−T0 control measurement)×100

Turning to `Nc1cc(N2CCCCC2)nc(N)[n+]1[O-]` [Minoxidil, 2,4-diamino-6-piperidinopyrimidine-3-oxide], the “% of activity” value is, setting by setting: (D4/D5 of treatment) 55%; (D8/D7 of treatment) 41%; (D12 of treatment) 21%; (D14 of treatment) 17%.
